Test results reported in patent publication US6780853B1, “Neuroactive steroids of the androstane and pregnane series” (priority 1995, dated 2004).
Counter-ions that a name gives are not always drawn.

Legend:
[1] = biological target: GABA receptor complex (GRC); test: [35S]TBPS binding in rat cerebral cortex P2 homogenate; details: for IC50: concentration to inhibit 50% of control [35S]TBPS binding, 2 nM [35S]TBPS; for IMAX (maximum inhibition): maximum inhibition of [35S]TBPS binding
From the text: To those skilled in the art, it is known that the modulation of [^35S]t-butylbicyclophosphorothionate ([^35S]TBPS) binding is a measure of the potency and efficacy of drugs acting at the GRC, which drugs may be of potential therapeutic value in the treatment of stress, anxiety, and seizure disorders (Squires, R. F., et al., Mol, Pharmacol., 23:326 (1983); Lawrence, L. J., et al., Biochem. Biophys. Res. Comm., 123:1130-1137 (1984); Wood, et al., Pharmacol, Exp. Ther., 231:572-576 (1984)). Several experiments were performed previously to determine the nature of the modulation of [^35S]TBPS as affected by neuroactive steroids. […] Furthermore, these compounds have high potency and efficacy at the GRC, with stringent structural requirements for such activity.
The procedures for performing this assay are fully discussed in: (1) Gee, K. W. et al., European Journal of Pharmacology, 136:419-423 (1987)); and (2) Gee, et al., Molecular Pharmacology 30:218 (1986). These procedures were performed as follows:
Brains from male Sprague-Dawley rats were removed immediately following sacrifice and the cerebral cortices dissected over ice. A P2 homogenate was prepared as previously described (Gee, et al., Molecular Pharmacology 30:218 (1986)). Briefly, the cortices were gently homogenized in 032 M sucrose followed by centrifugation at 1000×g for 10 minutes. The supernatant was collected and centrifuged at 9000×g for 20 minutes. The resultant P2 pellet was suspended as a 10% (original wet weight/volume) suspension in 50 mM Na/K phosphate buffer (pH 7.4) 200 mM NaCl to form the homogenate.
One hundred microliter […] aliquots of the P2 homogenate (0.5 milligrams (mg) protein) were incubated with 2 nanomolar (nM) [^35S]TBPS (70-110 curies/millimole; New England Nuclear, Boston, Mass.) in the presence or absence of the naturally occurring steroids or their synthetic derivatives to be tested. The tested compounds were dissolved in dimethylsulfoxide (Baker Chem. Co., Phillipsburg, N.J.) and added to the incubation mixture in 5 μL aliquots. The incubation mixture was brought to a final volume of 1 mL with buffer. Non-specific binding was defined as binding in the presence of […]. The effect and specificity of GABA (Sigma Chem. Co., St. Louis, Mo.) was evaluated by performing all assays in the presence of GABA plus (+)bicuculline (Sigma Chem. Co.). Incubations maintained at 25° C. for 90 minutes (steady state conditions) were terminated by rapid filtration through glass fiber filters (No. 32, Schleicher and Schuell, Keene, N.H.). Filter-bound radioactivity was quantitated by liquid scintillation spectrophotometry. Kinetic data and compound/[^35S]TBPS dose-response curves were analyzed by nonlinear regression using a computerized iterative procedure to obtain rate constants and IC50 (concentration of compound at which half-maximal inhibition of basal [^35S]TBPS binding occurs) values.
Various compounds were screened to determine their potential as modulators of [^35S]TBPS binding in vitro. These assays were performed in accordance with the above discussed procedures. Based on these assays, we have established the structure-activity requirements for their specific interaction at the GRC and their rank order potency and efficacy. Experimental data obtained in this assay for a number of 3α-hydroxypregnan-20-one derivatives is discussed in Gee, K. W. et al., European Journal of Pharmacology, 136:419-423 (1987) and in U.S. Pat. No. 5,232,917. Table 1 provides IC50 and maximum inhibition (IMAX) measurements for numerous compounds, including examples of compounds disclosed and claimed herein. IC50 is defined as concentration of compounds to inhibit 50% of control [^35S]TBPS binding. It is an indication of a compound's in vitro potency. Maximum inhibition is an indication of a compound's in vitro efficacy.

[2] = tested on: time spent on the open-arms; test: Elevated plus-maze test; format: in vivo, N.I.H. Swiss-Webster mice
From the text: The theoretical basis for the elevated plus-maze test is similar to that of the fight/dark transition test. As it was described previously by Pellow et al. J. Neurosci. Meth. 14:149-167 (1985)), the elevated plus-maze apparatus is designed to utilize the mice's natural aversion to open spaces. The apparatus consists of two open-arms and two enclosed-arms. The elevated plus-maze test allows for two measures of anxiety, the number of entries into the open-arms and the time spent on the open-arms, both expressed as a percentage of the total number of entries and time spent in/on both the open-arms and enclosed-arms.
Male N.I.H Swiss-Webster mice (Harlan, Indianapolis, Ind.) weighing 15-20 g were housed four per cage in polyethylene cages with sawdust bedding. The colony room was environmentally controlled (22° C.) with a 12 hr light/dark cycle (0600-1800 hr). Food and water were available ad libitum, except during testing. The experiments were run from 0700-1500 hr and groups were counterbalanced for time of day effects. Mice were only administered drug or vehicle once.
The method used was previously described (Lister, Psychopharmacol. 92:180-185 (1987)). The apparatus included two open arms perpendicular to two enclosed arms elevated 50 cm from the floor. Each arm was 50 cm long and the walls of the enclosed arms were 40 cm tall. The maze was made completely of black plexiglass. Incandescent 200 W light bulbs were above each of the open arms to produce a strong contrast between the open arms and the enclosed arms.
[…] Swiss-Webster mice were placed in the center of the plus-maze facing an open arm. During the 5 min test period, the number of entries onto the open arms and the enclosed arms, and the time spent in the open arms and enclosed arms were measured. All four paws had to be within an arm for the dependent variable to be measured. Therefore, the time spent in the center of the maze is not counted, so the total time spent in the open arms and the enclosed arms may not equal 5 min.

[3] = tested on: metrazol induced convulsions; test: Antimetrazol activity in mice; format: in vivo; details: IP
Experimental: Experiments were also performed to determine the physiological relevance of neuroactive steroid and GABA receptor interactions by assessing the ability of compounds of the present invention to prevent metrazol induced convulsions in mice. Mice were injected with various doses of the test compounds of the invention, 10 minutes prior to the injection of metrazol. The time to onset of myoclonus (presence of forelimb clonic activity) induced by metrazol was determined by observing each mouse for a period of 30 minutes. In control mice, metrazol (85 mg/kg) will induce convulsion in 95% of the animals.
The anticonvulsant tests are similar to that described above.

[4] = 50% hpbcd, 10 mg/kg, 10 min before metrazol 85 mg/kg

| SMILES | melting point [°C] | IC50 [1] [nM] | IMAX (maximum inhibition) [1] [%] | Plus-Maze (% Control), time spent on the open-arms ([2]; IP, 50% hpbcd, 10 mg/kg) [% Control] | % Protected [3, 4] [%] | Plus-Maze (% Control), time spent on the open-arms ([2]; IP, 50% hpbcd, 20 mg/kg) [% Control] | % Protected ([3]; 50% hpbcd, 20 mg/kg) [%] | Plus-Maze (% Control), time spent on the open-arms ([2]; PO, water, 10 mg/kg) [% Control] | % Protected ([3]; water, 10 mg/kg) [%] |
| --- | --- | --- | --- | --- | --- | --- | --- | --- | --- |
| C[C@]12CC[C@@H](O)C[C@@H]1CC[C@@H]1[C@@H]2CC[C@]2(C)[C@@H](OCCO)CC[C@@H]12 [17β-(2-Hydroxyethoxy)-3α-hydroxy-5α-androstane] | 181 to 183 | 534 | 99 | – | – | – | – | – | – |
| CC12CCC(O)CC1CCC1C2CCC2(C)C(C(=O)CSc3ncc[nH]3)CCC12 (stereo not drawn) [3α-Hydroxy-21-(imidazo-2-ylthio)-5β-pregnan-20-one] | – | 184 | 80 | 166 | 6.25 | – | – | – | – |
| C[C@]12CC[C@@H](O)C[C@H]1CC[C@@H]1[C@@H]2CC[C@]2(C)[C@@H](C(=O)C[S+]([O-])c3ccncc3)CC[C@@H]12 (stereo partly drawn) [3α-Hydroxy-21-(pyrid-4-ylsulfinyl)-5β-pregnan-20-one] | – | 235 | 73 | 171 | 25 | – | – | – | – |
| C[C@]12CC[C@@H](O)C[C@H]1CC[C@@H]1[C@@H]2CC[C@]2(C)[C@@H](C(=O)CSc3ccccn3)CC[C@@H]12 [3α-Hydroxy-21-(pyrid-2-ylthio)-5β-pregnan-20-one] | – | 90 | 66 | – | – | 187 | 12.5 | – | – |
| C[C@]12CC[C@@H](O)C[C@H]1CC[C@@H]1[C@@H]2CC[C@]2(C)[C@@H](C(=O)CSc3ccncc3)CC[C@@H]12 [3α-hydroxy-21-(pyrid-4-ylthio)-5β-pregnan-20-one] | – | 59 | 74 | 151 | 75 | – | – | – | – |
| COCC1(O)CCC2(C)C(CCC3C2CCC2(C)C(C(=O)CSc4ccc(N)cc4)CCC32)C1 (stereo not drawn) [21-(4′-aminophenylthio)-3α-hydroxy-3β-methoxymethyl-5α-pregnan-20-one] | 150 to 156 | 127 | 89 | – | – | – | – | – | – |
| C[C@]12CC[C@@H](O)C[C@H]1CC[C@@H]1[C@@H]2CC[C@]2(C)[C@@H](C(=O)COc3cccnc3)CC[C@@H]12 [3α-hydroxy-21-(pyrid-3-yl)oxy-5β-pregnan-20-one] | 63 to 66 | 76 | 76 | – | – | – | – | – | – |
| C[C@@]1(O)CC[C@@]2(C)[C@@H](CC[C@@H]3[C@@H]2CC[C@]2(C)[C@@H](C(=O)COc4ccc([N+](=O)[O-])cc4)CC[C@@H]32)C1 | 169 to 172 | – | – | – | – | – | – | – | – |
| CC(=O)c1ccc(C#CCO[C@H]2CC[C@H]3[C@@H]4CC[C@H]5C[C@](C)(O)CC[C@]5(C)[C@H]4CC[C@]23C)cc1 [17β-[3-(4-Acetylphenyl)-2-propynyloxy]-3α-hydroxy-3β-methyl-5α-androstane] | 52 to 55 | 316 | 95 | – | – | – | – | – | – |
| COC1CCC2C3CCC4CC(O)(C#CCCO)CCC4(C)C3CCC12C (stereo not drawn) [3β-(4′-Hydroxybutyn-1′-yl)-3α-hydroxy-17β-methoxy-5α-androst] [3β-(4′-Hydroxy-1-′-butynyl)-3α-hydroxy-17β-methoxy-5α-androstane] | – | 47 | 104 | 158 | – | – | – | – | – |
| C#CC1(O)CCC2(C)C(CCC3C2CCC2(C)C(C(=O)CSCCS(=O)(=O)O)CCC32)C1 (stereo not drawn) [3β-ethynyl-3α-hydroxy-21-thioethanesulfonate-5β-pregnan-20-one sodium salt] | – | 607 | 93 | 127 | 0 | – | – | – | – |
| CO[C@H]1CC[C@H]2[C@@H]3CC[C@@H]4C[C@H](OC(=O)C(C)C)CC[C@]4(C)[C@H]3CC[C@]12C | 82 to 87 | – | – | – | – | – | – | – | – |
| COC1CCC2C3CCC4CC(O)(C#CCCOC(=O)CCC(=O)O)CCC4(C)C3CCC12C (stereo not drawn) [3β-(4′-hydroxy-1′-butynyl)-3α-hydroxy-17β-methoxy-5β-androstane 4′-hemisuccinate sodium salt] | – | 108 | 100 | – | – | – | – | 309 | 75 |
